These results are taken from patent US20250277213A1, “COMPOSITIONS AND METHODS RELATED TO MULTIPLE MYELOMA-ASSOCIATED LONG NONCODING RNAS” (Washington University, priority 2024, published 2025).

What all share (type): cell-based
The subject of series [1] is LINC01432. The series can be described thus: LINC01432 expression in U266B1 cells treated with standard drugs. Particulars: FIG. 8B, 8C.
In series [2] the test system is LINC01432. The series can be described thus: mFISH of LINC01432 in U266B1 cells treated with high-dose melphalan. The method, then:
RNAScope was performed as previously described, with some modifications using RNAscope 2.5 HD Reagent Kit Red assay combined with Immunohistochemistry (Advanced Cell Diagnostics [ACD], Catalog #323180 and #322372) according to manufacturer's instructions. Briefly, bone marrow aspirates or isolated tumors were applied to slides were baked in a dry air oven for one hour at 60° C., deparaffinized (Xylene for five minutes twice, followed by 100% ethanol for two minutes twice), hydrogen peroxide was applied for 10 minutes at room temperature, and co-detection target retrieval was performed using Steamer (BELLA) for twenty minutes and PBS-T washing. Slides were then incubated overnight with CUGBP2 (CELF2) antibody (Protein Tech, Cat #12921-1-AP) in a HybEz Slide Rack with damp humidifying paper and incubated overnight at 4° C. The next day, slides were washed in PBS-T then post-primary fixation was performed by submerging slides in 10% NBF for 30 minutes at room temperature. […]
Analysis of mFISH and IHC images was performed by comparing expression of LINC01432 or CELF2 between different cell lines or tissues and simultaneously verifying their cellular localization or intensity of expression. We first visualized our target RNA molecules using an EVOS M5000 imaging system and quantified targets with QuPath Software v0.5.1 to obtain cell-count per region and number of spots per cell data. […]

The test system of series [3] is LINC01432 binding to CELF2. The series can be described thus: iCLIP RT-qPCR of CELF2 binding to LINC01432 in U266B1 cells treated with melphalan. The following applies: high-dose melphalan for 48 hours, FIG. 16B. The method, then:
Cells were seeded at a density of twenty million cells/150 mm dish. The next day, cells were washed with cold PBS and media volumes were adjusted to 10 ml/dish. Dishes were then uncovered and irradiated with 150 mJ/cm^2 of […] (254 nm) in a crosslinker device (Stratalinker). Cells were then harvested and centrifuged at 2000 RPM at 4° C. for 5 minutes. Cell pellets were resuspended in 1 ml of NP-40 lysis buffer (20 mM Tris-HCl at pH 7.5, 100 mM KCl, 5 mM MgCl2, and 0.5% NP-40) with 1 μl protease inhibitor and 1 mM DTT, incubated on ice for ten minutes, and then centrifuged at 10,000 RPM for 15 minutes at 4° C. Supernatants were collected, 1 U/μl RNase T1 was added, then cell lysates were incubated at 22° C. for 30 minutes. Protein G Beads were resuspended in 100 μls NT2 buffer (50 mM Tris-HCl at pH 7.5, 150 mM NaCl,1 mM MgCl2, 0.05% NP-40) with 5 μg of respective antibodies, then rotated for one hour at room temperature. Cell lysates were added to the beads and incubated for three hours at 4° C., the beads were washed with NT2 buffer, and then incubated with 20 units RNAse-free DNase I for 15 minutes at 37° C. in a thermomixer, shaking slowly. […] (141 μls NP-40 lysis buffer, 0.1% SDS, 0.5 mg/ml Proteinase K) was then added and incubated for 15 minutes at 55° C. in a thermomixer, shaking at maximum speed. […]

A further series relates to MM cell lines. The series can be described thus: Apoptosis after LNA ASO-mediated CELF2 knockdown. Particulars: MM cell lines (U266B1 in FIG. 12B); vs control LNA ASO.
Series [4] deals with LINC01432. The series can be described thus: RT-qPCR of LINC01432 expression after LNA ASO transfection. Particulars: RPMI 8226 cells; 100 nM ASO, 48-72 hours; vs control LNA ASO; FIG. 5A. The method, then: (§1) Locked nucleic acid GapmeR antisense oligonucleotides (LNA ASOs) targeting LINC01432 (Qiagen, cat #3653410) and CELF2 (Qiagen, cat #339511), and negative control LNA ASOs (Qiagen, cat #148759394), were designed using the Qiagen Antisense LNA GapmeR Custom Builder (https://www.qiagen.com), sequences are listed in Table 2. RPMI 8226 cells were seeded at a density of 500,000 cells/well in 6-well plates, transfected with respective ASOs at 100 nM concentration using Lipofectamine 2000, and incubated for 48-72 hours. Cells were harvested and target knockdown was validated via RT-qPCR.
(In general: Real-time PCR tracks product formation cycle by cycle.)

In series [5] the test system is RPMI 8226 cells. As to the method:
as §1
(§2) We used the ApoTox-Glo Triplex Assay (Promega, Madison, WI) to simultaneously measure viability, cytotoxicity, and apoptosis in the same sample. We seeded 20,000 cells/well of Control CRISPR/Cas9, LINC01432 knockdown CRISPR/Cas9, empty vector, LINC01432 overexpression, or wild-type RPMI 8226 cells in triplicate into a 96-well plate at 100 uls complete media per well. We began by first adding 20 ul of Viability/Cytoxicity reagent to all wells, and briefly mixing for ˜30 seconds. Plates were then placed in a 37° C. incubator for one hour. Next, we measured the intensity of fluorescence (relative fluorescence units) using 400Ex/505Em (viability) and 485Ex/520Em (Cytotoxicity) in Varioskan LUX microplate reader. To measure apoptosis, we next add 100 ul Caspase-Glo 3/7 reagent to the same wells and briefly mixed by orbital shaking ˜20 seconds, followed by incubation at room temp for 30 minutes. Luminescence (relative luminescence units) was then measured using Varioskan LUX microplate reader to detect caspase activation. A similar protocol was used to detect the proliferation of cells treated with Melphalan at increasing concentrations (Sigma Aldrich, St. Louis, MO, cat #M2011) using 10 uls Invitrogen alamarBlue HS Cell Viability Reagent in 90 μls of 25,000 cells with media (Waltham, MA, cat #A50100). Fluorescence was then measured using 560Ex/570Em in a microplate reader.

The test system of series [6] is RPMI 8226 cells. The series can be described thus: Annexin V and propidium iodide flow cytometry, LNA ASO followed by Melphalan. As to the method:
We measured apoptosis by isolating cells and assessing via flow cytometry using BD Horizon V450 AnnexinV (BD Biosciences, Franklin Lakes, NJ). We seeded 500,000 cells/well in a 6-well plate for 24 hours. Cells were then harvested, and the usual protocol was followed, per manufactures instructions. Briefly, cells were washed twice with PBS, then incubated V450 AnnexinV and Propidium Iodide (ThermoFisher) for fifteen minutes at room temperature in the dark. Apoptosis and DNA content was assessed on a flow cytometer machine (Novios, Becton Dickinson) by the Flow Cytometry Core of Siteman Cancer Center, Washington University in St. Louis. We collected a minimum of 50,000 cells per sample in triplicate. FlowJo Version10 (Becton Dickinson) was used to analyze data.
(In general: In flow cytometry, cells or beads pass a laser one at a time.)

Series [7] relates to RPMI 8226 cells. The series can be described thus: Proliferation (alamarBlue, IC50 assay) of cells treated with LNA ASO and Melphalan. As to the method:
as §2
Background: Resazurin is reduced to fluorescent resorufin, in cell work by metabolically active cells.

Entries after “also recorded” stand apart in the source; their conditions may differ. A value given as a limit tells only on which side of the number the result lay.

Regarding `N[C@@H](Cc1ccc(N(CCCl)CCCl)cc1)C(=O)O` [melphalan, Melphalan], in the series with LINC01432 [1], the LINC01432 expression entry is reported as “increases LINC01432 expression”. Also, the “LINC01432 expression by mFISH” value in the series with LINC01432 [2] (high-dose melphalan for 24 hours, p=0.001) is reported as “High expression”. Moreover, in the series with LINC01432 [2] (high-dose melphalan for 48 hours, p=0.0012), the “LINC01432 expression by mFISH” value is “High expression”. Moreover, in series [3], the “decrease in binding enrichment compared to control cells, Tiling Primer 1” value was greater than 2 Fold Change and the “decrease in binding enrichment compared to control cells, Tiling Primer 5” value is reported as greater than 2 Fold Change.
Consider “CELF2 LNA ASO: LNA GapmeR antisense oligonucleotide targeting CELF2, GATGAACTCGTTACGC (SEQ_ID_NO: 33) (antisense GAUGAACUCGUUACGC; LNA gapmer from Qiagen, LNA pattern not given here)”, for which the apoptosis result in the series on MM cell lines is “increased apoptosis”.
Regarding “LINC01432-targeted LNA ASO: LNA GapmeR antisense oligonucleotide targeting LINC01432, TGGAGATTTTGCCATT (SEQ_ID_NO: 31) (antisense UGGAGAUUUUGCCAUU; LNA gapmer, pattern not given here)”, the LINC01432 expression entry with LINC01432 [4] is reported as “confirmed knockdown of LINC01432 expression”. Also, the cytotoxicity result with RPMI 8226 cells [5] is given as “significant decreases”. Moreover, the viability entry in the series with RPMI 8226 cells [5] (RPMI 8226 cells, vs control LNA ASO, p=0.001, FIG. 5B) was “significant decreases”. Also, the apoptosis result in the series on RPMI 8226 cells [5] (RPMI 8226 cells, vs control LNA ASO, p=0.017, FIG. 5B) is “significant increase”. For the same molecule, in the series on RPMI 8226 cells [6] (MM cell lines in vitro, co-treatment with high-dose melphalan), the “apoptosis on co-treatment with melphalan” value is given as “increased apoptosis”. The “proportion of cells in early apoptosis and necrosis” value with RPMI 8226 cells [6] (RPMI 8226 cells, LNA ASO followed by 24 hours of 30 μM Melphalan, vs control LNA ASO, FIG. 5C) is “increased”. Further, the sensitivity to melphalan entry in the series on RPMI 8226 cells [7] (MM cell lines in vitro, with high-dose melphalan) is listed as “induce sensitivity to melphalan; also recorded: enhanced sensitivity to melphalan”. For the same molecule, the proliferation entry with RPMI 8226 cells [7] (RPMI 8226 cells, LNA ASO plus Melphalan, vs control LNA ASO, FIG. 5D) is “decreased proliferation”.
